Assay results as given in US20240058265A1, “TREATMENT OF OCULAR DISEASES USING ENDOTHELIN RECEPTOR ANTAGONISTS” (Perfuse Therapeutics, Inc., priority 2021, published 2024).
In brackets after ≈: the same amount, converted by molar mass. Several values for one entry are separate records, joined by “and”; a condition that tells them apart may be missing. Equal entries are not always repeated. Where two headings read alike, the source gives them in different places. Each block holds one molecule with its values, some of them ahead of it. Where no end group is shown, it is not given here.

What was measured:
[1] = Solubility of crystalline forms; type: physicochemical; settings: room temperature, 24 hours
Experimental: The solubility described herein can be measured using the following procedure: • ii. Solubility Analysis Protocol • 1. No less than 2.0 mg samples are weighed into lower chamber of whatman miniuniprep vials (GE Healthcare). 450 μL of buffer was added into each chamber. • 2. Filter pistons of miniuniprep vials are placed and compressed to the position of the liquid level to allow for contact of buffer and compound with the filter during incubation. • 3. The samples are vortexed for 2 minutes followed by incubation at room temperature (about 25±2° C.) for 24 hours with shaking at 500 rpm. • 4. Miniunipreps are compressed to prepare the filtrates for injection into HPLC system. All vials are inspected for visible undissolved material before filtering and for leakage after filtering. • 5. Dilute supernatant with buffer by a factor of 100 folds to make diluents which are analyzed with HPLC.

[2] = system: laser-induced glaucoma eye; assay: Laser-induced glaucoma non-human primate, intraocular pressure after topical administration; type: in vivo, rhesus macaque, Macaca Mulatta; settings: single dose 50 μL topical 0.5% in each eye, 120 minutes
Experimental: Non-human primates (rhesus macaque, Macaca Mulatta) were obtained for this study. One eye of each animal underwent induction of elevation of intraocular pressure (TOP) by repeated laser photocoagulation of the trabecular meshwork. Imaging sessions were repeated to monitor the optic nerve head (ONH) and retinal structural changes. A single dose of 0.5% Timolol or a single dose of 2 mg/mL Edonentan was topically administered to three non-human primates that have laser-induced glaucoma in their right eyes (OD) with 1-week wash-out in a randomized order.

ET-1 induced vasospasm = assay: Rabbit ET-1 induced vasospasm model, retinal blood flow (OCT-A, FA); type: in vivo, rabbit (Oryctolagus cuniculus)
Experimental: Adult, male Dutch-belted rabbits were given a 20 μl intravitreal injection (IVT) of 0.5 μg of ET-1 followed by a 20 μl intravitreal injection of 10-100 μg Edonentan given 30 min after the ET-1 administration. IOP, optical coherence tomography—angiography (OCT-A), and fluorescein angiograms (FA) were performed at pre-specified time points (30, 45, 60, and 75 min) following ET-1 and Edonentan administration to assess retinal blood flow changes induced by ET-1+/−Edonentan. […] To evaluate the effect of retinal blood flow following intravitreally administered endothelin-1 (ET-1) followed by the antagonist Edonentan in the rabbit, rabbits (Oryctolagus cuniculus) were given a 20 μL intravitreal injection of ET-1 in the left eye followed by a 20 μL intravitreal injection of Edonentan at 2 (or 3) different doses (e.g. 0.1 μg, 0.5 μg, 2.5 μg). The pulse ox, tonometry, optical coherence tomography angiography (OCTA), fluorescein angiography (FA) and retinal leakage scoring were performed for evaluation.

[3] = Slurry conversion of crystalline forms (relative thermodynamic stability); type: physicochemical
Experimental: In an alternate method, 150 mg of Edonentan (Form 3) was added to a mixture of isopropanol and water (1 mL and 2 mL, respectively). The resulting slurry was stirred at 15° C. for 48 hours and then filtered.
In an alternate method, 200 mg of Edonentan (Form 1) was added to a mixture of isopropanol and water (1.3 mL and 2.6 mL, respectively). The resulting solution was heated to 80° C. and stirred for 24 h, then cooled and filtered.

Stability in solid state = type: physicochemical; settings: 2 h@125° C.
Source text: (§1) In the above table, the physicochemical data, e.g., solubility, were obtained following standard protocols known in the field (see, e.g., Reis et al., Mini Rev Med Chem., 2010, 10(11):1071-6; Avdeef et al., Expert Opin Drug Metab Toxicol., 2005, 1(2):325-42; Bharate et al., Comb Chem High Throughput Screen., 2016, 19(6):461-9; and Jain et al., J Pharm Biomed Anal., 2013, 86:11-35.); and the biochemical data, i.e., potency for ETA/ETB, were obtained following the protocols known in the field (see, e.g., Kirkby et al., Br J Pharmacol., 2008, 153(6):1105-19; and Maguire et al., Br J Pharmacol., 2014, 171(24):5555-72.).

[4] = Solubility (pH 2, pH 7, ethyl acetate); type: physicochemical
Source text: as §1

Permeability (PAMPA) = type: in vitro ADME
Source text: as §1

elevated IOP rat eye = assay: Morrison's rat model of glaucoma (RGC counts, PERG); type: in vivo, Brown Norway rats; settings: topical eye drops 100 μg per dose, five days a week, four weeks
Source text: Adult male and female retired breeder Brown Norway rats (approximate age groups of 8 to 11 months) were obtained from Envigo (Indianapolis, IN). Baseline IOP measurements and pattern electroretinogram (PERG) amplitudes were collected prior to the surgery for elevation of IOP (to ensure that the IOP and PERG amplitudes were in the expected range of values). IOP was elevated in one eye (left eye) of the rats, while the corresponding right eyes served as contralateral controls. The Morrison method to elevate IOP in rats was carried out by injection of 50 μL of hypertonic saline through the episcleral veins to sclerose the trabecular meshwork. IOP was measured twice a week throughout the entire duration of the experiment. […] After detecting an elevation of IOP for two consecutive days, topical administration of eye drops ([…] (100 μg,) per dose of the tested compounds in the IOP elevated eye) was commenced and carried out for five days a week for a total of four weeks. In the 4th week of treatment, PERG analysis was carried out and rats were sacrificed by an overdose of pentobarbital (fatal-Plus). Aqueous humor was collected from the rat eyes, frozen and shipped for analysis. Retinal flat mounts were prepared, immunostained with the RGC marker, Brn3a antibody and surviving RG-Cs were counted in two eccentricities (central and peripheral).
For this study, the Morrison's model was used to induce ocular hypertension in adult male retired breeder Brown Norway rats as previously described by. Morrison et al., (Morrison J C, Moore C G, Deppmeier L M, Gold B G, Meshul C K, Johnson E C. A rat model of chronic pressure-induced optic nerve damage. Exp Eye Res. 1997;64(1):85-96).
The immunostained retinal flat mounts were obtained to measure the retinal ganglion cell (RGC) counts. To obtain immunostained retinal flat mounts, the animals were euthanized after the treatments and then their eyes were enucleated. The eye cups were fixed overnight at 4° C. in 4% paraformaldehyde (PFA) and retinal flat mounts were prepared for collecting images. The retinal ganglion cell (RGC) counting was conducted using the images of immunostained retinal flat mounts. The images were uploaded to ImageJ, a photo editor designed for biology research (Rasband, 1997-2018) and the labeled retinal ganglion cells were counted manually in two eccentricities (central and peripheral).
Pattern ERG (PERG) was used to assess the RGC function. […] Briefly, PERG signals were acquired from a DTL-plus electrode placed on the lower part of the corneal surface and the PERG waves were analyzed using the EMWIN software (LKC). The difference between the amplitude of the major positive (P1) and negative (N2) waves were calculated to decipher the PERG amplitude.

ETA receptor = molecular target: T1, ETA receptor (Homo sapiens, UniProt P25101); assay: Functional potency for ETA receptor; type: biochemical
T1 sequence (P25101 21-427): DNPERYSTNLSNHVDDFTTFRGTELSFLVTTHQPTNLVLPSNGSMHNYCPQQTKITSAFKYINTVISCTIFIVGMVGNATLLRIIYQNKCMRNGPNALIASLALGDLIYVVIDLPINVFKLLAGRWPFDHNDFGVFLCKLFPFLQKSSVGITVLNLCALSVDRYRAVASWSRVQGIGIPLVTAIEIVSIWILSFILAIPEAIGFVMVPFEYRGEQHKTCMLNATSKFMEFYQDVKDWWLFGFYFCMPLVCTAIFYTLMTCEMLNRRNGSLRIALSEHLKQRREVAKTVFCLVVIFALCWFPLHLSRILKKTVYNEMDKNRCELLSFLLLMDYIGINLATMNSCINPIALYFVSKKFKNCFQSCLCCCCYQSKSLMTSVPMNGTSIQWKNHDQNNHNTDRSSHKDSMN
Source text: as §1

ETA/ETB receptor = settings: cited from earlier work
[5] = Pharmacokinetics after topical or oral administration in the rat; type: in vivo, Brown Norway rats
Experimental: After the administrations, the animals (N=2) were euthanized at different time points (e.g. 4 and 8 hours) and tissues were collected for analysis. List of tissues collected include plasma, retina/retinal pigment epithelium (RPE)/choroid, vitreous humor and aqueous humor.

Molecule: CC(C)(C)NC[C@H](O)COc1nsnc1N1CCOCC1 [Timolol, reference compound]
IOP reduction from pre-dose to post-dose ([2]; Control 1): about 20%
IOP reduction from pre-dose to post-dose ([2]; Control 2): about 30%

Molecule: ET-1: Endothelin-1, given intravitreally to induce vasospasm in rabbit retina (CSCSSLMDKECVYFCHLDIIW; ends and bridges not checked; cysteine pairing not given here; UniProt P05305 53-73, looked up) [reference compound]
Vasoconstriction in the retinal vascular beds (ET-1 induced vasospasm; 0.5 μg ET-1 IVT, within 45 min): induced a clear vasoconstriction

Molecule: CCCCCS(=O)(=O)N(CCC)CCN1C[C@H](c2ccc3c(c2)OCO3)[C@@H](C(=O)O)[C@@H]1c1ccc(OC)c(F)c1 [A-182086, (2R,3R,4S)-4-(2H-1,3-benzodioxol-5-yl)-2-(3-fluoro-4-methoxyphenyl)-1-[2-(N-propylpentane-1-sulfonamido)ethyl]pyrrolidine-3-carboxylic acid]
Stability in Solid State (verdict) (Stability in solid state): unstable
Stability in Solid State, remaining (Stability in solid state): about 87% remaining/
Solubility in Ethyl Acetate (rating) ([4]; ethyl acetate): Good
solubility ([4]; ethyl acetate, organic solvent or mixture, read-out: Solubility in Ethyl Acetate): > 10600 µg/mL and > 18400 µM
solubility ([4]; pH 2, read-out: Solubility at pH 2): 159.8 µM (≈ 92.5 µg/mL)
Solubility at pH 7 ([4]; pH 7, amorphous form): 298.4 μM
Permeability (rating) (Permeability (PAMPA)): Mid-High
RGC function (PERG) (elevated IOP rat eye): maintained RGC function
RGC loss (RGC counts, retinal flat mounts) (elevated IOP rat eye): prevented RGC loss
Functional potency for ETA and ETB receptors (rating) (ETA receptor): High potency
Specificity ETA vs ETB (rating) (ETA receptor): Low specificity
ETA/ETB selectivity (ETA/ETB receptor): 4 fold
Fluorescein dye velocity as an index of retinal blood flow (ET-1 induced vasospasm; healthy rabbits, 0.5 μg ET-1 and 10 μg antagonist IVT (FIG. 3)): improved to control levels
Detection in retina/RPE/choroid after oral administration ([5]; oral, 50 mg/kg): detectable
Detection in retina/RPE/choroid, aqueous humor and vitreous humor ([5]; topical eye drop 100 μg, 4 and 8 hours): detected

Further lines, with some results ahead:

Solubility pH 7.0 Phosphate Buffer [1]: 251 μg/mL
Molecule: Cc1onc(NS(=O)(=O)c2ccccc2-c2ccc(-c3ncco3)cc2CN(C)C(=O)CC(C)(C)C)c1C [Form 3]

Solubility pH 7.0 Phosphate Buffer [1]: 138 μg/mL
Molecule: Cc1onc(NS(=O)(=O)c2ccccc2-c2ccc(-c3ncco3)cc2CN(C)C(=O)CC(C)(C)C)c1C [Form 4]
Relative thermodynamic stability of crystalline form ([3]; isopropanol and water, 80° C., 24 h): more thermodynamically stable than Form 1
Relative thermodynamic stability of crystalline form ([3]; slurry in isopropanol and water, 15° C., 48 hours): more thermodynamically stable than Form 3

Solubility pH 7.0 Phosphate Buffer [1]: 35 μg/mL
Molecule: Cc1onc(NS(=O)(=O)c2ccccc2-c2ccc(-c3ncco3)cc2CN(C)C(=O)CC(C)(C)C)c1C [Form 2]

Solubility pH 7.0 Phosphate Buffer [1]: 264 μg/mL
Molecule: Cc1onc(NS(=O)(=O)c2ccccc2-c2ccc(-c3ncco3)cc2CN(C)C(=O)CC(C)(C)C)c1C [Form 1]
